The results in this text go back to patent US11691976B2, “Coelenterazine analogues” (PROMEGA CORPORATION, priority 2018, dated 2023).

The target in this assay is NANOLUC® Luciferase (Oplophorus gracilirostris, UniProt Q9GV45, A31E/A60N/A81I/F95D/I117V/K70R/L54V/L99Q/M102K/N193R/P142E/Q151K/Q38R/Q45L/V71I/Y165I). In words: Luminescence assay: substrate titration with purified NANOLUC Luciferase (RLU, signal half-life, Km). In kind it is biochemical. The settings on record: 100 μM substrate; initial light output three minutes after substrate addition; relative to furimazine set to 1.0. Here is the method: Each compound to be screened was dissolved in DMSO (5 mM) and then further diluted to 100 μM in NANO-GEO® Luciferase Assay Buffer. A two-fold dilution series was prepared for each substrate by serially diluting 500 μl of the substrate solution with 500 μl of NANO-GLO® Luciferase Assay Buffer. Each diluted substrate titration was then combined in equal volumes with purified NANOLUC® Luciferase diluted into CO2 independent media+10% FBS. Initial light output for each substrate was measured in a GLOMAX®-Multi+ luminometer three minutes after substrate addition and then at five minute intervals as a means to determine signal half-life. Signal half-life was calculated using GraphPad Prism One Phase Decay regression and Km and Vmax were calculated using GraphPad Prism using Michaelis-Menten regression.
Sequence of NANOLUC® Luciferase (Q9GV45 28-196 with tags or gaps with the stated changes limits assumed): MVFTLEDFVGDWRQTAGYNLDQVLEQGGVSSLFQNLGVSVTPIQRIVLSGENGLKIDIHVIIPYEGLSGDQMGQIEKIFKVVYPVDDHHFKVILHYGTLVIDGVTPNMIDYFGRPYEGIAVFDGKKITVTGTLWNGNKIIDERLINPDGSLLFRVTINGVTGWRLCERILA
The synthesized coelenterazine analogues (compounds of formula (I) and (II)) were evaluated for their suitability as luciferase substrates. NANOLUC® luciferase was employed for the screening because it is a small (19 kDa), stable, and particularly bright enzyme. […] RLU, half-life, and Km values are for furimazine is set to 1.0. […]
Consider `COCc1cccc(Cc2nc3c(Cc4ccccc4)[nH]c(-c4cccc(O[Si](C)(C)C(C)(C)C)c4)cn-3c2=O)c1` [JRW-0372, 8-benzyl-6-(3-((tert-butyldimethylsilyl)oxy)phenyl)-2-(3-(methoxymethyl)benzyl)imidazo[1,2-a]pyrazin-3(7H)-one], for which the “RLU (@100 μM)” value was 0.00033.
In the case of `COCc1cccc(Cc2nc3c(Cc4ccccc4)[nH]c(-c4cccc(O)c4)cn-3c2=O)c1` [JRW-0373, 8-benzyl-6-(3-hydroxyphenyl)-2-(3-(methoxymethyl)benzyl)imidazo[1,2-a]pyrazin-3(7H)-one], the “RLU (@100 μM)” value was 0.27.
To `O=c1c(Cc2ccc3c(c2)OCO3)nc2c(Cc3ccccc3)[nH]c(-c3cccc(O)c3)cn1-2` [JRW-0777, 2-(benzo[d][1,3]dioxol-5-ylmethyl)-8-benzyl-6-(3-hydroxyphenyl)imidazo[1,2-a]pyrazin-3(7H)-one] belongs 0.45; to `O=c1c(Cc2ccc(F)cc2)nc2c(Cc3ccccc3)[nH]c(-c3cccc(O)c3)cn1-2` [JRW-0786, 8-benzyl-2-(4-fluorobenzyl)-6-(3-hydroxyphenyl)imidazo[1,2-a]pyrazin-3(7H)-one], 0.88; to `O=c1c(Cc2ccccc2)nc2c(Cc3ccccc3)[nH]c(-c3cccc(O)c3)cn1-2` [JRW-1043, 2,8-dibenzyl-6-(3-hydroxyphenyl)imidazo[1,2-a]pyrazin-3(7H)-one], 0.8.
On to `COc1cccc(Cc2nc3c(Cc4ccccc4)[nH]c(-c4cccc(O)c4)cn-3c2=O)c1` [JRW-1047, 8-benzyl-6-(3-hydroxyphenyl)-2-(3-methoxybenzyl)imidazo[1,2-a]pyrazin-3(7H)-one], for which the “RLU (@100 μM)” value was 0.5.
`COc1ccc(Cc2nc3c(Cc4ccccc4)[nH]c(-c4cccc(O)c4)cn-3c2=O)cc1` [JRW-1052, 8-benzyl-6-(3-hydroxyphenyl)-2-(4-methoxybenzyl)imidazo[1,2-a]pyrazin-3(7H)-one]: the “RLU (@100 μM)” value is given as 0.4.
Regarding `Cc1ccc(Cc2nc3c(Cc4ccccc4)[nH]c(-c4cccc(O)c4)cn-3c2=O)o1` [JRW-1056, 8-benzyl-6-(3-hydroxyphenyl)-2-((5-methylfuran-2-yl)methyl)imidazo[1,2-a]pyrazin-3(7H)-one], the “RLU (@100 μM)” value stood at 1.1.
To `Cc1cccc(Cc2[nH]c(-c3cccc(O)c3)cn3c(=O)c(Cc4ccco4)nc2-3)c1` [JRW-1368, 2-(furan-2-ylmethyl)-6-(3-hydroxyphenyl)-8-(3-methylbenzyl)imidazo[1,2-a]pyrazin-3(7H)-one] belongs 0.032.
Turning to `Cc1cccc(Cc2[nH]c(-c3cccc(O)c3F)cn3c(=O)c(Cc4ccco4)nc2-3)c1` [JRW-1370, 6-(2-fluoro-3-hydroxyphenyl)-2-(furan-2-ylmethyl)-8-(3-methylbenzyl)imidazo[1,2-a]pyrazin-3(7H)-one], the “RLU (@100 μM)” value worked out at 0.036.
With `O=c1c(Cc2ccco2)nc2c(Cc3ccccc3)[nH]c(-c3cccc(O)c3F)cn1-2` [JRW-1404, 8-benzyl-6-(2-fluoro-3-hydroxyphenyl)-2-(furan-2-ylmethyl)imidazo[1,2-a]pyrazin-3(7H)-one], the “RLU (@100 μM)” value stood at 1.2.
Turning to `O=c1c(Cc2ccco2)nc2c(Cc3ccccc3)[nH]c(-c3cc(O)ccc3F)cn1-2` [JRW-1405, 8-benzyl-6-(2-fluoro-5-hydroxyphenyl)-2-(furan-2-ylmethyl)imidazo[1,2-a]pyrazin-3(7H)-one], the “RLU (@100 μM)” value came out at 1.0.
Consider `Nc1ccc(F)c(-c2cn3c(=O)c(Cc4ccco4)nc-3c(Cc3ccccc3)[nH]2)c1` [JRW-1411, 6-(5-amino-2-fluorophenyl)-8-benzyl-2-(furan-2-ylmethyl)imidazo[1,2-a]pyrazin-3(7H)-one], for which the “RLU (@100 μM)” value is 0.001.
The figure for `O=c1c(Cc2ccco2)nc2c(Cc3ccccc3)[nH]c(-c3cccc([N+](=O)[O-])c3)cn1-2` [JRW-1424, 8-benzyl-2-(furan-2-ylmethyl)-6-(3-nitrophenyl)imidazo[1,2-a]pyrazin-3(7H)-one] is 0.14.
